Data published in publication PMC8883477 (Journal of Medicinal Chemistry, 2022).
Converted amounts (≈) assume the structure as drawn. “And” between values parts separate entries of the source, which are not always exact repeats. Identical values can stand only once.

Assays:
[1] = DMSO-d6, 25–85 °C
physchem [2] = settings: pH 7.4
physchem [3] = settings: pH 7.4; remark: listed apart in the source
[4] = target: Keap1 (Kelch domain = aa321–aa609) (Homo sapiens, UniProt Q14145); assay: biochemical; settings: KD SPR, supplementary CSV; ISA format

In the case of `CC(=O)N1CCC[C@H]1C(=O)N[C@@H]1COC(=O)c2ccccc2COC[C@H](C(=O)N(C)C)NC1=O` [Compound 6, (4R,7R)-7-((S)-1-Acetylpyrrolidine-2-carboxamido)-N,N-dimethyl-6,10-dioxo-1,3,4,5,6,7,8,10-octahydrobenzo[j][1,8]dioxa[4]azacyclododecine-4-carboxamide], the “Δδ/T, NHA (cysteine NH)” value [1] is reported as 3.50 ppb/K and the “Δδ/T, NHB (serine NH)” value [1] is reported as 3.5 ppb/K and 3.53 ppb/K.

With `CC(=O)N1CCC[C@H]1C(=O)N[C@@H]1COC(=O)c2cccc(-c3ccc(C(=O)O)cc3)c2CSC[C@H](C(=O)N(C)C)NC1=O` [Compound 64, 4-((4S,7R)-7-((S)-1-Acetylpyrrolidine-2-carboxamido)-4-(dimethylcarbamoyl)-6,10-dioxo-1,3,4,5,6,7,8,10-octahydrobenzo[j][1]oxa[8]thia[5]azacyclododecin-14-yl)benzoic Acid] the logD (physchem [2]) was < -1.5 and the solubility (physchem [3]) was > 850 µM.

For `CC(=O)N1CCC[C@H]1C(=O)N[C@@H]1COC(=O)c2cccc(-c3cc(C)c(C(=O)O)c(C)c3)c2CSC[C@H](C(=O)N(C)C)NC1=O` [Compound 77, 4-((4S,7R)-7-((S)-1-Acetylpyrrolidine-2-carboxamido)-4-(dimethylcarbamoyl)-6,10-dioxo-1,3,4,5,6,7,8,10-octahydrobenzo[j][1]oxa[8]thia[5]azacyclododecin-14-yl)-2,6-dimethylbenzoic Acid], the logD (physchem [2]) was < -1.4 and the solubility (physchem [3]) was 965 ± 38 µM (≈ 616 µg/mL).

In the case of `CC(=O)N1CCC[C@H]1C(=O)N[C@@H]1COC(=O)c2cccc(-c3cc(F)c(C(=O)O)c(F)c3)c2CSC[C@H](C(=O)N(C)C)NC1=O` [Compound 78, 4-((4S,7R)-7-((S)-1-Acetylpyrrolidine-2-carboxamido)-4-(dimethylcarbamoyl)-6,10-dioxo-1,3,4,5,6,7,8,10-octahydrobenzo[j][1]oxa[8]thia[5]azacyclododecin-14-yl)-2,6-difluorobenzoic Acid], the logD (physchem [2]) is reported as < -0.8 and the solubility (physchem [3]) is reported as > 1000 µM.

For `COC(=O)CCC(=O)N1CCC[C@H]1C(=O)N[C@@H]1COC(=O)c2ccccc2CSC[C@H](C(=O)N(C)C)NC1=O` [Compound S3], the Kd [4] was 17.1 µM.

Work on `CN(C)C(=O)[C@H]1CSCc2ccccc2C(=O)OC[C@@H](NC(=O)[C@@H]2CCCN2C(=O)c2cccn(C)c2=O)C(=O)N1` [Compound S7] yielded a Kd [4] of 14.7 µM.

`CN(C)C(=O)[C@H]1CSCc2ccccc2C(=O)OC[C@@H](NC(=O)[C@@H]2CCCN2C(=O)c2ccccc2NS(C)(=O)=O)C(=O)N1` [Compound S8] gave a Kd [4] of 15.3 µM.

`CC(=O)N(CC(=O)N1CCC[C@H]1C(=O)N[C@@H]1COC(=O)c2ccccc2CSC[C@H](C(=O)N(C)C)NC1=O)c1ccccc1` [Compound S11] gave a Kd [4] of 63.6 µM.

Compound `CN(C)C(=O)[C@H]1CSCc2ccccc2C(=O)OC[C@@H](NC(=O)[C@@H]2CCCN2C(=O)Cc2cc3ccccc3s2)C(=O)N1` [Compound S13] has a Kd [4] of 35.4 µM.

`CN(C)C(=O)[C@H]1CSCc2ccccc2C(=O)OC[C@@H](NC(=O)[C@@H]2CCCN2C(=O)Cc2cccnc2)C(=O)N1` [Compound S16] gave a Kd [4] of 51 µM.

In the case of `CN(C)C(=O)[C@H]1CSCc2ccccc2C(=O)OC[C@@H](NC(=O)[C@@H]2CCCN2C(=O)c2ccccc2-n2cnnn2)C(=O)N1` [Compound S21], the Kd [4] is reported as 13 µM.
